US11673889B2, “Substituted imidazo[4,5-c][1,8]naphthyridines as phosphodiesterase inhibitors” (Nanjing Zhengxiang Pharmaceuticals Co., Ltd., priority 2019, dated 2023)
Like-named read-outs stand apart in the source and are kept apart here.

Columns and labels:
human soluble ENPP1 [1] = biological target: T1, human soluble ENPP1 (Homo sapiens, UniProt P22413); assay: ENPP1 activity assay using p-Nitrophenyl-5′-TMP as a substrate; assay type: biochemical
T1 construct: 20 ng of human soluble ENPP1
T1 sequence (P22413 103-925 limits assumed): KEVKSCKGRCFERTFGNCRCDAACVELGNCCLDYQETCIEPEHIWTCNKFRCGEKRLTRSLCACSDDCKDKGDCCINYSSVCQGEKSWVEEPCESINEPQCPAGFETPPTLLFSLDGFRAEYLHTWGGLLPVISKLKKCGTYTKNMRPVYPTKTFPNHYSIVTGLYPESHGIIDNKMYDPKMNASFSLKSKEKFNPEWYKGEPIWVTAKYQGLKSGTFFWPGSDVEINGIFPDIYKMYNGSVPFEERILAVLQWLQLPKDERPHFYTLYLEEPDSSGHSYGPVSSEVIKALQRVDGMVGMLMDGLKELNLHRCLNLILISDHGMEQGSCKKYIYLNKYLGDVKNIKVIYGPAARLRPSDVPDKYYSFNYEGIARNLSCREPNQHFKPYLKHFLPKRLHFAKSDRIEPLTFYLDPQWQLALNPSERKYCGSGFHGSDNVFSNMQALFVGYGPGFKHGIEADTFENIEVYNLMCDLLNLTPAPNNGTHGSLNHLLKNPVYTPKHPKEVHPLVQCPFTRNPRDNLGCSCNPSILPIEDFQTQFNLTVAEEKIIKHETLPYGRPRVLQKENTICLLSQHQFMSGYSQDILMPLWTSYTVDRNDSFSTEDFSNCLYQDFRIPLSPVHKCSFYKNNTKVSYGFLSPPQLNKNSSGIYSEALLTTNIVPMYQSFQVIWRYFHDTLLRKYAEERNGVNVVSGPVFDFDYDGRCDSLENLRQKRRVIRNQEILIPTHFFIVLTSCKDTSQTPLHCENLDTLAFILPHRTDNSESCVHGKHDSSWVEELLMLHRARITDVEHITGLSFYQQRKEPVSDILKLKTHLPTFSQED
Method in brief: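 Human soluble ENPP1 (20 ng) was preincubated with inhibitor for 30 min at room temperature. TMP-pNP was then added as a 2 mM […] solution and incubated 1 h at RT, with p-nitrophenol formation read by OD. IC50 came from four-parameter fits of % inhibition relative to no-inhibitor and blank controls.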

ENPP-1, MDA-MB-231 cells = biological target: T2, ENPP-1, MDA-MB-231 cells (Homo sapiens, UniProt P22413); assay: cell-based; settings: for inhibition at 20 µM: MDA-MB-231, read-out: % Inhibition (at 20 μM)
T2 sequence (P22413 1-925): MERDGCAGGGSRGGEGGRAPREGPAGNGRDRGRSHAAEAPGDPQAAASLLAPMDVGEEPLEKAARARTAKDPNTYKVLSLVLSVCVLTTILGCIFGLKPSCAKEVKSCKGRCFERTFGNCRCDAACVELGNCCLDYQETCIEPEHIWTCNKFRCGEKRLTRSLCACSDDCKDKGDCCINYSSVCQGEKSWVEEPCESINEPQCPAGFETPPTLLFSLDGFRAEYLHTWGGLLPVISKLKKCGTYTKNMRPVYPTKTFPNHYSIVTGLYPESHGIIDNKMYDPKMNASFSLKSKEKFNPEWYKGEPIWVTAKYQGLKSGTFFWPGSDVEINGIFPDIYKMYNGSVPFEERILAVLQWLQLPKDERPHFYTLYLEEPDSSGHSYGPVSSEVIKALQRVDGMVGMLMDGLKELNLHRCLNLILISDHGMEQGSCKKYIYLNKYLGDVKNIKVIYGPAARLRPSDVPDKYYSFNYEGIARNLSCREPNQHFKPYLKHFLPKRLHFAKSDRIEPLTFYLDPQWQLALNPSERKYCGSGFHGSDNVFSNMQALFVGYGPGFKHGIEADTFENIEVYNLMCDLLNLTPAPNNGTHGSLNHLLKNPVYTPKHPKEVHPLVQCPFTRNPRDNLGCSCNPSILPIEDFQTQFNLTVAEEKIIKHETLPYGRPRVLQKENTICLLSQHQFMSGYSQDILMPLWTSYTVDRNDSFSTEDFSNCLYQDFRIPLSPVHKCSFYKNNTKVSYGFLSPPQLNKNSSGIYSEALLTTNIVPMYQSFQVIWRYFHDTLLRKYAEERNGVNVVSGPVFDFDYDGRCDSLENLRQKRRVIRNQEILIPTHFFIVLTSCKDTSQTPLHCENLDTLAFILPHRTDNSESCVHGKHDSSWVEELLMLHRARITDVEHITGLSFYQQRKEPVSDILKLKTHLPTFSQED

ENPP-1, HEK293 cells = biological target: T3, ENPP-1, HEK293 cells (Homo sapiens, UniProt P22413); assay: Cellular enzymatic assay of ENPP-1 inhibitors using TMP-pNP as substrate, HEK 293 cells; assay type: cell-based
T3 construct: ENPP-1 were mainly expressed on the surface of cell membrane; endogenous in cells; host or cells: HEK293
T3 sequence (P22413 1-925): T2 sequence (P22413 1-925)
Protocol: (§1) ENPP-1 were mainly expressed on the surface of cell membrane where it hydrolytes 2′3′-cGAMP to generate 5′-GMP and 5′-AMP. ENPP-1 also has the ability to hydrolyzes artificial phosphoric acid ester TMP-pNP to nucleotide-5′-monophosphate and p-nitrophcnol there, which is a chromogenic product.
(§2) 8 point of different concentrations of each inhibitor were prepared with the final assay concentrations starting at 20 μM. 3× series dilution by DMEM medium without FBS was applied. Prior to adding inhibitors, 75000 cells per well were incubated at 37° C., 5% CO2 in DMEM for 24 hours. After removing the supernatant medium, 50 μL inhibitor solution was added into each well with cultured cells and incubate at 37° C., 5% CO2 for 60 minutes.
(§3) The IC50 values for percent inhibition versus compound concentration are determined by fitting the inhibition curves using a four-parameter variable slope model in GraphPad Prism® 8.

human soluble ENPP1 [2] = biological target: T1, human soluble ENPP1; assay: ENPP1 activity assay using p-Nitrophenyl-5′-AMP as a substrate; assay type: biochemical
Method in brief: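 Human soluble ENPP1 (35 ng) preincubated with inhibitor 30 min at RT, then p-nitrophenyl-5′-AMP added (3 mM solution, 2× final) and incubated 1 h at RT. p-Nitrophenolate release read at OD 405 nm; % inhibition vs no-inhibitor and blank controls, IC50 from four-parameter fit.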

[3] = Liver microsome stability, mouse; assay type: in vitro ADME
Protocol: Liver microsome assay was used to evaluate the metabolic stability of I-VI. The test article at the concentration of […] was incubated with 0.5 mg/mL liver microsome in the presence of NADPH and UDPGA as the co-factors for 0, 15, 30, 45 and 60 minutes. The incubation was carried out at 37° C. with 5% CO2 and saturating humidity. Disappearance of the test article was monitored by LC/MS/MS. the disappearance half-life (t1/2), intrinsic clearance and hepatic extraction ratio were determined.

ENPP-1, Saos-2 cells = biological target: T4, ENPP-1, Saos-2 cells (Homo sapiens, UniProt P22413); assay: Cellular enzymatic assay of ENPP-1 inhibitors using TMP-pNP as substrate, Saos-2 cells; assay type: cell-based
T4 construct: ENPP-1 were mainly expressed on the surface of cell membrane; endogenous in cells; host or cells: Saos-2
T4 sequence (P22413 1-925): T2 sequence (P22413 1-925)
Protocol: as §1, §2, §3

Pharmacokinetics in mice = assay type: in vivo; settings: mouse, plasma, male CD-1 mice; for AUC / clearance / half-life / Vd: 1 mg/kg, iv; for Vd: read-out: Vdss
Protocol: A dosing solution of test sample was prepared at 1.0 mg/mL in 5% DMSO/40% PEG400/55% water and administered to male CD-1 mice (4-6 weeks old, 20-30 grams, 3 animals each group) via intravenous (IV) bolus at 1 mg/kg and by oral gavage (PO) at 5 mg/kg. Blood samples (˜0.03 mL each time point) were collected via the jugular vein into tubes containing sodium heparin as the anticoagulant at 0.033, 0.083, 0.25, 0.5, 1, 2, 4, 8 and 24 hours post dose for IV administration and 0.083, 0.25, 0.5, 1, 2, 4, 8 and 24 hours post dose for PO administration. The blood samples were then centrifuged for 5 minutes in a centrifuge refrigerated at 4° C. The resultant plasma samples were analyzed using LC/MS/MS to determine concentrations of test sample. Non-compartmental model with WinNonlin (Phoenix™, version 8.0) software was used to calculate pharmacokinetic (PK) parameters.

[4] = HEK293, HEK 293 cells, at 20 μM, read-out: Inhibition (at 20 μM)
[5] = HEK293, read-out: Inhibition (at 20 μM)

Row | Compound | IC50 (human soluble ENPP1 [1]) [nM] | IC50 (ENPP-1, MDA-MB-231 cells) [nM] | inhibition at 20 µM (ENPP-1, MDA-MB-231 cells) [%] | IC50 (ENPP-1, HEK293 cells) [nM] | inhibition at 20 µM (ENPP-1, HEK293 cells; [4]) [%] | IC50 (human soluble ENPP1 [2]) [nM] | Hepatic extraction ratio Re ([3]; Mouse liver microsome) | half-life ([3]; liver microsomes, Mouse liver microsome 0.5 mg/mL, NADPH and UDPGA, 37° C., read-out: Half-life t1/2) [min] | microsomal CLint ([3]; liver microsomes, Mouse liver microsome, read-out: Intrinsic clearance Cl′int, (μL/min/mg protein)) [µL/min/mg] | IC50 (ENPP-1, Saos-2 cells) [nM] | inhibition at 20 µM (ENPP-1, Saos-2 cells; SAOS-2, read-out: % Inhibition (@20 μM)) [%] | AUC (Pharmacokinetics in mice) [ng·h/mL] | clearance (Pharmacokinetics in mice) [mL/min/kg] | half-life (Pharmacokinetics in mice) [min] | Vd (Pharmacokinetics in mice) [L/kg] | inhibition at 20 µM (ENPP-1, HEK293 cells; [5]) [%] | bioavailability (Pharmacokinetics in mice; oral gavage (PO) at 5 mg/kg vs IV 1 mg/kg) [%]
1 | COc1cnc2c(c1)ncc1ncn(Cc3ccc(S(N)(=O)=O)cc3)c12 [Compound 49, 4-((7-methoxy-1H-imidazo[4,5-c][1,5]naphthyridin-1-yl)methyl)benzenesulfonamide] | 1.9 | 6000 | 67 | 10000 | 67 | 4.8 |  |  |  |  |  |  |  |  |  |  | 
2 | COc1cc2ncc3ncn([C@H](C)c4ccc(S(N)(=O)=O)cc4)c3c2cc1OC [Compound 11a, (R)-4-(1-(7,8-dimethoxy-1H-imidazo[4,5-c]quinolin-1-yl)ethyl)benzenesulfonamide] | 0.88 | 600 | 79 | 2100 | 84 | 2.5 | 0.85 | 11 | 131 | 1200 | 87 |  |  |  |  |  | 
3 | COc1ccc2c(ncc3nc(C(F)(F)F)n(Cc4ccc(S(N)(=O)=O)cc4)c32)n1 [Compound 47, 4-((7-methoxy-2-(trifluoromethyl)-1H-imidazo[4,5-c][1,8]naphthyridin-1-yl)methyl)benzenesulfonamide] | 1 | 3400 | 72 | 5000 | 77 |  |  |  |  |  |  |  |  |  |  |  | 
4 | COc1ccc2c(ncc3ncn(Cc4ccc(S(N)(=O)=O)nc4)c32)n1 [Compound 41, 5-((7-methoxy-1H-imidazo[4,5-c][1,8]naphthyridin-1-yl)methyl)pyridine-2-sulfonamide] | 0.21 | 310 | 81 | 660 | 96 | 0.9 |  |  |  |  |  | 227 | 74 | 72 | 4 |  | 
5 | COc1ccc2c(ncc3ncn(Cc4ccc(NS(N)(=O)=O)cc4)c32)n1 [Compound 46, 4-((7-methoxy-1H-imidazo[4,5-c][1,8]naphthyridin-1-yl)methyl)phenyl sulfamide] | 5.2 | 1600 | 75 | 2400 |  |  |  |  |  |  |  |  |  |  |  | 85 | 
6 | COc1ccc2c(ncc3ncn(Cc4ccc(S(N)(=O)=O)cn4)c32)n1 [Compound 40, 6-((7-methoxy-1H-imidazo[4,5-c][1,8]naphthyridin-1-yl)methyl)pyridine-3-sulfonamide] | 0.15 | 65 | 85 | 130 |  | 0.23 |  |  |  |  |  | 241 | 70 | 162 | 7.3 | 96 | 
7 | COc1ccc2c(ncc3ncn(Cc4ccc(S(N)(=O)=O)cc4)c32)n1 [Compound 39, 4-((7-methoxy-1H-imidazo[4,5-c][1,8]naphthyridin-1-yl)methyl)benzenesulfonamide] | 0.25 | 400 | 82 | 730 | 94 | 0.42 |  |  |  |  |  | 115 | 115 | 19.8 | 3.1 |  | 
8 | COc1ccc2c(ncc3[nH]c(=O)n(Cc4ccc(S(N)(=O)=O)cc4F)c32)n1 [Compound 102, 3-fluoro-4-((7-methoxy-2-oxo-2,3-dihydro-1H-imidazo[4,5-c][1,8]naphthyridin-1-yl)methyl)benzenesulfonamide] | 0.51 | 430 | 86 |  |  | 0.74 |  |  |  |  |  | 657 | 26 | 306 | 5.2 |  | 8.4
9 | COc1ccc2c(ncc3nc(CC#N)n(Cc4ccc(S(N)(=O)=O)c(F)c4)c32)n1 [Compound 82, 4-((2-(cyanomethyl)-7-methoxy-1H-imidazo[4,5-c][1,8]naphthyridin-1-yl)methyl)-2-fluorobenzenesulfonamide] | 0.8 | 560 | 82 |  |  | 2.4 |  |  |  |  |  | 253 | 66 | 51.6 | 2.2 |  | 
10 | COc1ccc2c(ncc3ncn(Cc4ccc(S(N)(=O)=O)c(C(F)(F)F)c4)c32)n1 [Compound 65, 4-((7-methoxy-1H-imidazo[4,5-c][1,8]naphthyridin-1-yl)methyl)-2-(trifluoromethyl)benzenesulfonamide] | 3 | 1600 | 75 |  |  | 8.7 |  |  |  |  |  | 185 | 92 | 43.2 | 3.1 |  | 
